Test results from US20250034216A1, “STEREOSELECTIVE COVALENT LIGANDS FOR ONCOGENIC AND IMMUNOLOGICAL PROTEINS” (The Scripps Research Institute, priority 2021, published 2025).

Columns and labels:
Experiment in all cases: IA-DTB cysteine engagement
Assay type in all cases: binding
Details in all cases: 22Rv1 cells, 20 μM probe, 1 h, relative to DMSO
UNC13A_C999 = biological target: T1, UNC13A_C999 (Homo sapiens, UniProt Q9UPW8)
T1 construct: endogenous in cells; host or cells: 22Rv1
Method in brief: (§1)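 First, cells are exposed to electrophilic probes in situ. Next, lysates are labeled with IA-DTB (1 h, ambient temperature), reduced, alkylated and trypsin-digested. Then, IA-DTB peptides are enriched on streptavidin, TMT-labeled and analyzed, with ratios taken against DMSO channels.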

MTMR12_C152 = biological target: T2, MTMR12_C152 (Homo sapiens, UniProt Q9C0I1)
T2 construct: endogenous in cells; host or cells: 22Rv1
T2 sequence (Q9C0I1 1-747): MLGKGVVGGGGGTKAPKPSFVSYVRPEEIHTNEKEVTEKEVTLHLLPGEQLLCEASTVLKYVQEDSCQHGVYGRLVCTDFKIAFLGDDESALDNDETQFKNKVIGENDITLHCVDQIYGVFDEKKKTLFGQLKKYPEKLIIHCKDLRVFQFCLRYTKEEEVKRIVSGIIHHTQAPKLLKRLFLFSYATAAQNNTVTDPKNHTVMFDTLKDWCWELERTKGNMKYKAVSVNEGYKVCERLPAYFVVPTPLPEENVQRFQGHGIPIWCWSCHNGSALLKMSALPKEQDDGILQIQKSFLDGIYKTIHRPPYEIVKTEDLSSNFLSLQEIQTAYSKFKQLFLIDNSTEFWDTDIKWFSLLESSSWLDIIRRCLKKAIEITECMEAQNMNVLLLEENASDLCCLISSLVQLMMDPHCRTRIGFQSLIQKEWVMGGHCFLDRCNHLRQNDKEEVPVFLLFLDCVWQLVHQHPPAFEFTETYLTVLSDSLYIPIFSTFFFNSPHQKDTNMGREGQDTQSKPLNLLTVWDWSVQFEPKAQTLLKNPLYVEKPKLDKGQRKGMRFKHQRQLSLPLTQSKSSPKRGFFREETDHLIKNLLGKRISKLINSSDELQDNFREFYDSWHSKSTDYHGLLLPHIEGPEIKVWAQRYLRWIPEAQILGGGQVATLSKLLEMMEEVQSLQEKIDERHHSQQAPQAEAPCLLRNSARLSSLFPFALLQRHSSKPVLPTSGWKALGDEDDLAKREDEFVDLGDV
Method in brief: as §1

SLC25A20_C89 = biological target: T3, SLC25A20_C89 (Homo sapiens, UniProt O43772)
T3 construct: endogenous in cells; host or cells: 22Rv1
T3 sequence (O43772 1-301): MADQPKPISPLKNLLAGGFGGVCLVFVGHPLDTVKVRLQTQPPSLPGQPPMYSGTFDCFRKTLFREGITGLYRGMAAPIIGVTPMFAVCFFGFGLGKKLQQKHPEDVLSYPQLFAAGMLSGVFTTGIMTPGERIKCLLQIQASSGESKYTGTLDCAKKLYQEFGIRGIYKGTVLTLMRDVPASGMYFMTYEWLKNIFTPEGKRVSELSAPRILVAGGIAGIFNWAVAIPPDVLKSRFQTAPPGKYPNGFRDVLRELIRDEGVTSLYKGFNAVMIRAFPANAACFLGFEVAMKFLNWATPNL
Method in brief: as §1

% engagement UNC13A_C999 (UNC13A_C999) | % engagement MTMR12_C152 (MTMR12_C152) | % engagement SLC25A20_C89 (SLC25A20_C89) | Compound
23.5% | 91.5% | 91% | C=CC(=O)N1C[C@H](c2ccc(Br)cc2)[C@H]1C(=O)Nc1cccc2cccnc12 [MY-3B, (2S,3S)-1-acryloyl-3-(4-bromophenyl)-N-(quinolin-8-yl)azetidine-2-carboxamide]
100% | 31% | 94% | C=CC(=O)N1C[C@H](c2ccc(Br)cc2)[C@@H]1C(=O)Nc1cccc2cccnc12 [MY-1B, (2R,3S)-1-acryloyl-3-(4-bromophenyl)-N-(quinolin-8-yl)azetidine-2-carboxamide]
100% | 12% | 45% | C=CC(=O)N1C[C@H](c2ccc(Br)cc2)[C@H]1C(=O)Nc1cccc2cccnc12 [MY-3A, (2S,3S)-1-acryloyl-3-(4-bromophenyl)-N-(quinolin-8-yl)azetidine-2-carboxamide]
54.5% | 40.5% | 9.5% | C=CC(=O)N1C[C@@H](c2ccc(Br)cc2)[C@H]1C(=O)Nc1cccc2cccnc12 [MY-1A, (2S,3R)-1-acryloyl-3-(4-bromophenyl)-N-(quinolin-8-yl)azetidine-2-carboxamide]
